From patent US20260053778A1, “USE OF NOVEL PPAR ACTIVITY MODULATOR FOR PREVENTION, AMELIORATION OR TREATMENT OF DEGENERATIVE BRAIN DISEASES” (POSTECH RESEARCH AND BUSINESS DEVELOPMENT FOUNDATION, priority 2022, published 2026)

Legend:
[1] = system: HMO6 cell line; assay: Cell viability assay (MTT), HMO6; format: cell-based; conditions: HMO6, 48 h, at higher concentrations
Protocol: Cell viability was measured by a chromogenic assay that biologically reduces 3-(4,5-dimethyl-thiazol-2-yl)-2,5-diphenyltetrazolium bromide (MTT) to formazan in living cells. Briefly, cells were cultured in 96-well plates in a final volume of 100 μL. After 24 h, the culture medium was replaced with fresh medium containing DTMB compound, and the cells were cultured for another 48 h. Next, MTT (dissolved in PBS at 5 mg/mL) was added to the culture medium. The cells were cultured in the dark at 37° C. for 1 h, and then the supernatant was removed from the wells. The formazan crystals were dissolved by adding total MTT solvent (4 mM HCl and 0.1% Nonidet P-40, both dissolved in isopropanol), and the absorbance was measured at 570 nm using a microplate reader, Infinite 200 Pro NanoQuant microplate reader (TECAN, Switzerland).

[2] = system: RAW 264.7 macrophages; assay: NO production inhibition (Griess assay) in LPS-treated macrophages; format: cell-based; conditions: LPS-induced
Protocol: Previous studies have reported that all three subtypes of PPAR inhibit inflammatory responses through inhibition of the activity and quantitative changes of the NF-κB transcription factor, a major regulator of inflammatory responses.
First, RAW 264.7 macrophages were cultured in a humidified atmosphere of 37° C. in a 5% CO2 incubator with DMEM containing 10% FBS and 1% penicillin/streptomycin. After inducing an inflammatory response in RAW 264.7 macrophages by LPS treatment, the Griess assay (Promega) was performed according to the manufacturer's instructions to measure the concentration of nitrite.

[3] = system: 5×FAD mice; assay: Western blot and qPCR of APP and β-/γ-secretase in brain tissue; format: in vivo, mouse; conditions: DTMB 10 mg/kg orally
Protocol: Aβ peptides are generated from amyloid precursor protein (APP) by the action of β- and γ-secretase. It is possible that DTMB acts on APP processing to inhibit the formation of Aβ aggregates. To investigate this possibility, the protein levels of total APP and components of β- and γ-secretase were measured in the hippocampus and cortex using western blot and qPCR.
(§1) To investigate the soluble and insoluble Aβ components, two extraction steps were performed. Left hemisphere samples were homogenized at a concentration of 100 mg/mL in cold Tris-buffered saline (TBS consisting of 50 mM Tris-pH 7.5 and 150 mM NaCl) with a protease inhibitor cocktail (Thermo Fisher Scientific, Waltham, MO, USA). After centrifugation at 15,000 rpm for 1 hour at 4° C., the supernatant of the sample was used for western blotting. Insoluble proteins were extracted from the pellet by dissolving in 5 M guanidine buffer (5 M guanidine HCl and 150 mM NaCl-pH 7.5). Soluble and insoluble protein samples were stored at −80° C.
Western blot analysis was performed in the same manner as in Example 2-4 using primary antibodies against nicastrin, pen2 (Cell Signaling Technology, Danvers, MA, USA), Aph1 (Invitrogen), amyloid C-terminal fragment (Santa Cruz Biotechnology, Dallas, TX, USA), and GAPDH (Bethyl Laboratories, Mongomery, TX, USA). Secondary antibodies from rabbit (Promega), rat, and goat (Bethyl Laboratories) were used, and detection was performed using SUPEX ECL reagent (Neuronex, Korea) and ImageQuant LAS-4000 (GE Healthcare, MA, USA) according to the manufacturer's instructions. Integrated blot densities were quantified using ImageJ.

[4] = system: 5×FAD mice; assay: Aβ monomer Western blot and filter trap assay of brain lysates; format: in vivo, mouse; conditions: brain tissue lysates, 6e10 Western blot
Protocol: as §1
The insoluble fraction of the protein lysate from 5×FAD mice was diluted in 1% SDS-PBS and boiled at 95° C. for 5 min. The membrane was pre-equilibrated with 1×TBS. A dot blotter apparatus (Bio-Rad Laboratories, Hercules, CA, USA) was used for sample application, and the 6e10 antibody was used to detect the Aβ content in the brain lysate from 5×FAD mice treated with DTMB. The sample size was 3 mice per group.

[5] = system: 5×FAD Alzheimer's dementia-induced mice; assay: qPCR of proinflammatory cytokines in brain tissue; format: in vivo, mouse; conditions: 5×FAD mice
Excerpt: The gene expression levels of proinflammatory cytokines and related enzymes (II-1B, Il-6, and iNOS) in the brain tissues of the DTMB-administered and non-administered groups of 5×FAD Alzheimer's dementia-induced mice were confirmed by qPCR.

[6] = system: 5×FAD mice; assay: Western blot of NLRP3, NF-κB and ASC in hippocampal tissue; format: in vivo, mouse; conditions: hippocampal brain lysate
Protocol: The protein levels of NLRP3, NF-κB, and ASC in the hippocampal tissues isolated from 5×FAD mice and DTMB-treated 5×FAD mice were confirmed by Western blot. Western blot analysis was performed in the same manner as in Example 2-4 using primary antibodies against NLRP3, NF-κB, and ASC (Cell Signaling Technology, Danvers, MA, USA).

[7] = system: 5×FAD mice; assay: RT-PCR of adult microglia isolated from brains of treated mice; format: in vivo, mouse; conditions: microglia isolated from 5×FAD mice administered DTMB
Protocol: To elucidate whether the gliosis reduction effect of DTMB administration confirmed in Example 6 was due to functional changes in microglia, brain tissues from mice administered DTMB were extracted, microglia were isolated, and the expression of genes related to inflammation and activation in microglia was analyzed to what extent they changed.
To isolate adult microglia from the brains of 5×FAD mice treated with DTMB or vehicle, a magnetic-activated cell sorting (MACS) system was used. Whole brain tissue was dissociated to the single-cell level using the gentleMACs dissociation kit (Miltenyi Biotech, Bergisch Gladbach, Germany) according to the manufacturer's instructions. To isolate the immune cell fraction, a 47% Percoll concentration gradient was applied to the single-cell mixture and centrifuged at 2,000 rpm for 10 min. Adult microglia were isolated by LS column after incubation with anti-CD11b MicroBeads (Miltenyi Biotech). RT-PCR was performed using the isolated adult microglia to analyze the expression of microglial activation and inflammation-related genes. The sample size was 3 mice per group.

## COc1ccc(-c2cc(=O)oc3c(C)c(OC(=O)[C@H](Cc4c[nH]c5ccccc45)NC(=O)OC(C)(C)C)ccc23)cc1 [DTMB, [4-(4-Methoxyphenyl)-8-methyl-2-oxochromen-7-yl](2S)-3-(1H-indol-3-yl)-2-[(2-methylpropan-2-yl)oxycarbonylamino]propanoate]
[1]
  Cytotoxicity (MTT): no cytotoxicity
[2]; at the same concentration
  NO production inhibition compared with PPAR modulators: more effectively than WY14643, a PPARα modulator, and rosiglitazone, a PPARγ modulator
[2]; Mus musculus, RAW264.7, Griess reagent
  IC50: 1.23 µM
[3]; cortex
  Protein level of β-secretase: slightly decreased
[3]; hippocampus
  APP protein and mRNA levels: no changes
  Protein levels of β- and γ-secretase: no changes
[4]
  Amyloid β monomers: not reduced
[5]
  Expression level of Il-1β: decreased
  Expression level of Il-6: decreased
  Expression level of iNOS: decreased
[6]
  ASC level: did not change significantly
  Protein level of NF-κB: decreased
  Protein level of NLRP3: decreased
[7]
  Gene expression of Cxcl10: decreased
  Gene expression of IL-1β: decreased
  Gene expression of IL-6: decreased
  Gene expression of Iba-1: decreased
  Gene expression of Itgax2: decreased
  Gene expression of TNF-α: decreased
  Gene expression of Trem2: decreased
  Gene expression of clec7a: decreased
